Test results taken from patent EP1736150A2 (Pfizer, Inc., priority 1997, dated 1999).
“And” between values parts separate entries of the source, which are not always exact repeats. Equal values may be shown once.

Legend:
[1] = Accelerated chemical stability (reverse phase HPLC); conditions: same accelerated stability conditions
[2] = Hygroscopicity (moisture microbalance); format: physicochemical; conditions: 10% to 90% humidity, 25°C
Procedure: A temperature of 25°C is maintained during all hygroscopicity measurements.

[3] = Pharmacokinetics of sertraline delivered to various portions of the gastrointestinal tract (Example 3); format: in vivo; conditions: for AUC(0-t): human, plasma; for AUC(0-t) / AUC as percent of the AUC observed after dosing with oral tablets: 200 mg
[4] = tested on: healthy male human subjects; assay: Side effect score versus plasma concentration, PK/PD (Example 6); format: in vivo
[5] = Plasma pharmacokinetics, bolus versus 15 hr divided dosing (Example 1); format: in vivo; conditions: human
[6] = tested on: healthy male human subjects; assay: Side effects by visual analogue scales and emesis (Example 2); format: in vivo
[7] = tested on: healthy male human subjects; assay: Side effects by visual analogue scales and emesis (Example 1); format: in vivo
[8] = Plasma pharmacokinetics, bolus versus 7 hr divided dosing (Example 2); format: in vivo; conditions: human, fasted, mean; for AUC(0-t): po, 200 mg
[9] = Mechanical properties of compacts of the pure drug substance; format: physicochemical
Procedure: The measurements of mechanical properties can be routinely accomplished using square compacts of the pure drug substance, in this case sertraline acetate and sertraline L-lactate. The measurements are made in triplicate and the compacts are prepared by uniaxial compression and triaxial decompression.
Samples for the testing of mechanical properties are prepared according to standard procedures. To generate reliable data, such samples must be free of mechanical flaws, such as microcracks. Therefore, a specialized tablet press, prepared as described in U.S. Patent No. 4,880,373, is utilized. […] The apparent density of the compact is determined by measuring the […]. […] The true density of the powder is determined by helium pycnometry. Ordinarily, to achieve the desired solid fraction, trial compactions of carefully weighed powder samples must be performed and the solid fraction of the resultant compact is measured. […]
Dynamic indentation hardness, H0, of the compacts is measured with a pendulum impact apparatus , prepared as described in U.S. Patent No. 4,885,933. […] The time required for the pendulum to pass between two photocells of given distance apart is measured and the pendulum rebound height, hr is automatically calculated. […]

[10] = GROUP A, Ileocecal Infusion, 200 mg as 2 mg/ml solution
[11] = GROUP A, Stomach Infusion, 200 mg as 2 mg/ml solution
[12] = GROUP B, Colonic Infusion (transverse colon), 200 mg as 2 mg/ml solution
[13] = GROUP B, Duodenal Infusion, 200 mg as 2 mg/ml solution
[14] = 200 mg single dose (Group A), two 100 mg immediate release tablets (ZOLOFT), oral, fasted, mean
[15] = 200 mg bolus dose group, individual subjects
[16] = GROUP B (8 Divided Doses) 25 mg hourly
[17] = GROUP A (Bolus Dose) 200 mg, summed over 24 hr post-dose
[18] = GROUP B (16 Divided Doses) 12.5 mg hourly, summed over 24 hr post-dose
[19] = 200 mg single dose, two 100 mg immediate release tablets (ZOLOFT), oral, four subjects with emesis not included

With CN[C@H]1CC[C@@H](c2ccc(Cl)c(Cl)c2)c2ccccc21.N[C@@H](CC(=O)O)C(=O)O [sertraline L-aspartate] the “purity of samples after stability testing” value [1] was “greater than 99%” and the hygroscopicity [2] was “not hygroscopic”.

With CN[C@H]1CC[C@@H](c2ccc(Cl)c(Cl)c2)c2ccccc21 [sertraline, (1S-cis)-4-(3,4-dichlorophenyl)-1,2,3,4-tetrahydro-N-methyl-1-naphthalenamine] the CMAX [3, 10] was 27.3 ng/mL, the TMAX [3, 10] was 5.0 h and the TMAX ([3]; GROUP A, Oral Tablet, 200 mg as two 100 mg tablets) was 7.0 h. The CMAX ([3]; GROUP A, Oral Tablet, 200 mg as two 100 mg tablets, 6 volunteers) was 39.9 ng/mL, the CMAX [3, 11] was 35.6 ng/mL and the TMAX [3, 11] was 7.0 h. For the same compound, the CMAX [3, 12] was 10.9 ng/mL, the TMAX [3, 12] was 4.4 h and the CMAX [3, 13] was 48.8 ng/mL. For the same compound, the TMAX [3, 13] was 3.7 h, the TMAX ([3]; GROUP B, Oral Tablet, 200 mg as two 100 mg tablets) was 6.7 h and the CMAX ([3]; GROUP B, Oral Tablet, 200 mg as two 100 mg tablets, 6 volunteers) was 44.7 ng/mL. It also gave an AUC(0-t) [3, 10] of 727 ng·h/mL, an AUC(0-t) [3, 11] of 923 ng·h/mL and an AUC(0-t) [3, 12] of 179 ng·h/mL. For the same compound, the AUC(0-t) [3, 13] was 1270 ng·h/mL, the AUC(0-t) ([3]; po, GROUP A, Oral Tablet, 200 mg as two 100 mg tablets) was 1170 ng·h/mL and the AUC(0-t) ([3]; po, GROUP B, Oral Tablet, 200 mg as two 100 mg tablets) was 1150 ng·h/mL. The “AUC as percent of the AUC observed after dosing with oral tablets” value (shortened to “AUC as percent of the AUC observed”) ([3]; infusion into the duodenal region) was 110%, the “AUC as percent of the AUC observed” value ([3]; infusion into the ileocecal region of the small intestine) was 62% and the “AUC as percent of the AUC observed” value ([3]; infusion into the stomach) was 79%. For the same compound, the “AUC as percent of the AUC observed” value ([3]; infusion into the transverse colon) was 16%, the “time at which the maximum diarrhea score was reached” value ([4]; Study 1, 200 mg bolus dose, post-dose) was 3 h and the time of emesis ([4]; Study II, 200 mg dose group, individual subjects) was 2.6 hr and 2.8 hr (2×) and 3.8 hr. The AUC(0-t) [5, 14] was 1650 ng·h/mL, the CMAX [5, 14] was 74 ng/mL and the TMAX [5, 14] was 6 h. For the same compound, the AUC(0-t) ([5]; po) was 1230 ng·h/mL, the time of emesis [6, 15] was 2.6 hr and 2.8 hr (2×) and 3.8 hr and the emetic events ([6]; 7 hr divided dose group, 8 x 25 mg (n=16)) was 1. For the same compound, the time of emesis ([6]; 7 hr divided dose regimen, one subject) was 12.6 h, the “Mean cumulative score: Dizziness” value ([6]; GROUP A (Bolus Dose) 200 mg) was 10.4 and the “Mean cumulative score: Regurgitation” value ([6]; GROUP A (Bolus Dose) 200 mg) was 3.9. The “Mean cumulative score: Tremor” value ([6]; GROUP A (Bolus Dose) 200 mg) was 8.9, the “Mean cumulative score: Dizziness” value [6, 16] was 4.8 and the “Mean cumulative score: Regurgitation” value [6, 16] was 0.1. For the same compound, the “Mean cumulative score: Tremor” value [6, 16] was 2.7, the subjects with emesis ([7]; 200 mg bolus dose group (15 subjects)) was “Three” and the time of emesis [7, 15] was 4.25 h and 11.2 h and 7.6 h. The emetic episodes ([7]; 15 hr divided dose regimen (16 x 12.5 mg)) was “no emetic episodes”, the “Mean cumulative score: Abdominal Cramping” value [7, 17] was 3.1 and the “Mean cumulative score: Diarrhea” value [7, 17] was 3.9. The “Mean cumulative score: Nausea” value [7, 17] was 17.5, the “Mean cumulative score: Regurgitation” value [7, 17] was 4.0 and the “Mean cumulative score: Tremor” value [7, 17] was 7.9. The “Mean cumulative score: Urgency to Defecate” value [7, 17] was 3.1, the “Mean cumulative score: Abdominal Pain” value ([7]; GROUP A (Bolus Dose) 200 mg, visual analogue scores summed over 24 hr post-dose) was 2.7 and the “Mean cumulative score: Abdominal Cramping” value [7, 18] was 0.1. For the same compound, the “Mean cumulative score: Abdominal Pain” value [7, 18] was 0.1, the “Mean cumulative score: Diarrhea” value [7, 18] was 0.2 and the “Mean cumulative score: Nausea” value [7, 18] was 2.6. For the same compound, the “Mean cumulative score: Regurgitation” value [7, 18] was 0.3, the “Mean cumulative score: Tremor” value [7, 18] was 1.7 and the CMAX [8, 19] was 75 ng/mL. For the same compound, the TMAX [8, 19] was 5.4 h, the AUC(0-t) ([8]; 25 mg per hr for 7 hr, eight 25 mg doses as solution) was 1440 ng·h/mL and the AUC(0-t) ([8]; 200 mg single dose, two 100 mg immediate release tablets (ZOLOFT), four subjects with emesis not included) was 1740 ng·h/mL.

For sertraline acetate, the “purity of samples after stability testing” value [1] was “greater than 99%”, the “ductility (assessment in words)” value [9] was “high ductility” and the “elastic modulus (assessment in words)” value [9] was “relatively low elastic modulus”. For the same compound, the hygroscopicity [2] was “not hygroscopic”.
